In ChEMBL document CHEMBL1201862, “PubChem BioAssay data set” (2004):
Active and inactive are the calls of the source. Rule as the data show it: actives have a measured IC50 and inactives only a lower limit.

Target: Envelope glycoprotein gp160 (Human immunodeficiency virus 1, UniProt Q6QLK5)
Assay: cell-free HIV fusion peptide-binding blockers – biochemical, uHTS, fluorescence dequenching, […] (AID 1986)

Sequence of Envelope glycoprotein gp160 (Q6QLK5 whole entry, the tested form may be a part): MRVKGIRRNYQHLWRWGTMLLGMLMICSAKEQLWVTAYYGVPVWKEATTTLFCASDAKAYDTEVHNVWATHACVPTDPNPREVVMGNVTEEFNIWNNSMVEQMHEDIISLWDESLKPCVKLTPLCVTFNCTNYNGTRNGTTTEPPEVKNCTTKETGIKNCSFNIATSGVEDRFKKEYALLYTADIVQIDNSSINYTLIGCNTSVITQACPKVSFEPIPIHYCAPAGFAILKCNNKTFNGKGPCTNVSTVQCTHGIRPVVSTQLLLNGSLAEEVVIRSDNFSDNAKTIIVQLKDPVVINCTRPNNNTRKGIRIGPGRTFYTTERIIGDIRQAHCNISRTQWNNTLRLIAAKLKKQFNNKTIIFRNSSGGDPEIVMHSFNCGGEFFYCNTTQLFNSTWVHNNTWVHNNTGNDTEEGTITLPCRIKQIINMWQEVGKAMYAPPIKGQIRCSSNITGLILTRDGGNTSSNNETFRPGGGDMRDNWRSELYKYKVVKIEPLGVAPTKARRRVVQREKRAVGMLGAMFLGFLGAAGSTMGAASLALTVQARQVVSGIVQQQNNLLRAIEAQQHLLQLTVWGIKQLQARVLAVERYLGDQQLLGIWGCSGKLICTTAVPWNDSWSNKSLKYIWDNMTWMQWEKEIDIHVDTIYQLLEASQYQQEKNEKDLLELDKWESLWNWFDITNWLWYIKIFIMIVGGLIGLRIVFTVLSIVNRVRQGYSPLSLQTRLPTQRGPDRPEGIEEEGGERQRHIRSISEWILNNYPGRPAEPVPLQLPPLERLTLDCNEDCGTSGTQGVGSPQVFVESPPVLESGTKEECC

CN(C)S(=O)(=O)c1cccc(-c2nn(-c3ccccc3)cc2/C=C2\SC(=S)N(CC(=O)O)C2=O)c1
IC50: 15.3 µM (active)

CC1=C(C(=O)OC(C)C)C(c2ccc(Cl)cc2)n2c(s/c(=C\c3ccc(OCC(=O)O)cc3)c2=O)=N1 (configuration not stated)
IC50: 13.4 µM (active)
